Source: patent US10799605B2 (3B PHARMACEUTICALS GMBH, priority 2014, dated 2020)
Where two headings read alike, the source gives them in different places.

Tests used:
[1] = Plasma protein binding assay, human; type: in vitro ADME; settings: plasma proteins, 4 h at 37° C., equilibrium dialysis, read-out: % bound [human]
Excerpt: A drug's efficiency may be affected by the degree to which it binds to the proteins within blood plasma. A drug in blood exists in two forms: bound and unbound. Depending on a specific drug's affinity for plasma protein, a proportion of the drug may become bound to plasma proteins, with the remainder being unbound. […] It is also the fraction that may be metabolized and/or excreted. Protein binding can influence the drug's biological half-life in the body. The bound portion may act as a reservoir or depot from which the drug is slowly released as the unbound form. In order to determine the binding characteristics of the compounds of the present invention as listed in the following Table to human or mouse plasma protein, respectively, a plasma protein binding assay was carried out. All compounds have a plasma protein binding that is appropriate for diagnostic, therapeutic and theranostic use of these compounds according to the present invention.
The binding of test substances to human and murine plasma proteins was tested by Cerep (Celle l'Evescault, France; Catalog reference 2194 [human] and 2223 [mouse]) according to Banker et al., J. Pharm. Sci., 2003, 92, 967-974. Test compounds were incubated with human or murine plasma proteins for 4 h at 37° C. Subsequently, the fraction of compound bound to plasma proteins was determined by equilibrium dialysis and HPLC-MS/MS detection. […]

A2A (h) = A2A (h) (Homo sapiens (Human), UniProt P29274); assay: ExpresSProfile: adenosine receptor 2A, agonist radioligand; type: binding; settings: Test Concentration 1.0E−05 M
Sequence of A2A (h) (P29274 whole entry): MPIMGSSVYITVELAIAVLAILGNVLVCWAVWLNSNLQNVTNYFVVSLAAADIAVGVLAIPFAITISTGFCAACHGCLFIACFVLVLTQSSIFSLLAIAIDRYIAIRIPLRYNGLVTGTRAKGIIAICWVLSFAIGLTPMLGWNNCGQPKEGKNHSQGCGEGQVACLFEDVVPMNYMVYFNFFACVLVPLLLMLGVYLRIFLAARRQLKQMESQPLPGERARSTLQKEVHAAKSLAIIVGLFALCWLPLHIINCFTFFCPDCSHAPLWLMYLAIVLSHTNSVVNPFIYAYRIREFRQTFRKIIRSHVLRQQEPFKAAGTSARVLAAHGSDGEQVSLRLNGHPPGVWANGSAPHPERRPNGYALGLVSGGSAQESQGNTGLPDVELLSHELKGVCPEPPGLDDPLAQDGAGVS

alpha 1 (non-selective) = assay: ExpresSProfile: alpha1 adrenergic receptor, antagonist radioligand; type: binding; settings: Test Concentration 1.0E−05 M
D1 (h) = D1 (h) (Homo sapiens (Human), UniProt P21728); assay: ExpresSProfile: dopamine receptor 1, antagonist radioligand; type: binding; settings: Test Concentration 1.0E−05 M
Sequence of D1 (h) (P21728 whole entry): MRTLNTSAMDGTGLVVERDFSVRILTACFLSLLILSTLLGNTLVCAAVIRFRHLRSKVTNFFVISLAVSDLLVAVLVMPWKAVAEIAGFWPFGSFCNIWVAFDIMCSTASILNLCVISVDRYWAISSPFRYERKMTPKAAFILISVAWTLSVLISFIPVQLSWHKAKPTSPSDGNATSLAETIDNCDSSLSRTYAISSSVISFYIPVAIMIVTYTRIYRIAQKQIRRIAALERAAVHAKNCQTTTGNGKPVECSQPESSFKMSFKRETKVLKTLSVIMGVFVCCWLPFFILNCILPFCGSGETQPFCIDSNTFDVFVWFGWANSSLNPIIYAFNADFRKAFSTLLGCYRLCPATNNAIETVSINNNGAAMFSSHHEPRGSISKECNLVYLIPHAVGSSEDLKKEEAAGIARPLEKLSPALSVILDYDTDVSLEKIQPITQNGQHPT

H2 (h) = H2 (h) (Homo sapiens (Human), UniProt P25021); assay: ExpresSProfile: histamine receptor 2, antagonist radioligand; type: binding; settings: Test Concentration 1.0E−05 M
Sequence of H2 (h) (P25021 whole entry): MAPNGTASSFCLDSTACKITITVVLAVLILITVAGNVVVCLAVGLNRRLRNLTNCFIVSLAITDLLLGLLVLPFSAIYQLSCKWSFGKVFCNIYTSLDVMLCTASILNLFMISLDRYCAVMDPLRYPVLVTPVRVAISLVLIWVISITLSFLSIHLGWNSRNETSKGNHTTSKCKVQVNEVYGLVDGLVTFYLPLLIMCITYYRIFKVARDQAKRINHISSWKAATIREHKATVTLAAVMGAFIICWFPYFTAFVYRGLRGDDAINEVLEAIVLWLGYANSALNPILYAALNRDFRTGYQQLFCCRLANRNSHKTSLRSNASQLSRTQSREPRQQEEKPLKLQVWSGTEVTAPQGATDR

MC4 (h) = MC4 (h) (Homo sapiens (Human), UniProt P32245); assay: ExpresSProfile: melanocortin receptor 4, agonist radioligand; type: binding; settings: Test Concentration 1.0E−05 M
Sequence of MC4 (h) (P32245 whole entry): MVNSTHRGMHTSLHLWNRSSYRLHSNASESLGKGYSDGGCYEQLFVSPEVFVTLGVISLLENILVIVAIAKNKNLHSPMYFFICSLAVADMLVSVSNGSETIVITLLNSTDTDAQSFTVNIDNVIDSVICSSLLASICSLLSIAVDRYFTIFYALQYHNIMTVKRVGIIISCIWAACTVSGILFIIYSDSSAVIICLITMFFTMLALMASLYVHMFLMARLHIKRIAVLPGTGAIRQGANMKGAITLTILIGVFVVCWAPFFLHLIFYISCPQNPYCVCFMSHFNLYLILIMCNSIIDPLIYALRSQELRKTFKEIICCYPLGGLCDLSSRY

kappa (KOP) = kappa (KOP) (Rattus norvegicus, UniProt P34975); assay: ExpresSProfile: kappa opioid receptor, agonist radioligand; type: binding; settings: Test Concentration 1.0E−05 M
Cl-channel (GABA-gated) = assay: ExpresSProfile: Cl-channel, antagonist radioligand; type: binding; settings: Test Concentration 1.0E−05 M
[2] = read-out: % Inhibition of Control Specific Binding
[3] = read-out: % of Control Specific Binding 1st
[4] = read-out: % of Control Specific Binding 2nd
[5] = read-out: % of Control Specific Binding Mean

Question: For `COc1cccc(OC)c1-c1cc(C(=O)NC2(C(=O)O)C3CC4CC(C3)CC2C4)nn1-c1ccc(C(=O)N(C)CCCN(C)CCCN(C)C(=O)CN2CCN(CC(=O)O)CCN(CC(=O)O)CCN(CC(=O)O)CC2)cc1C(C)C` (centres unmarked) [(IIIa), 2-{[1-{4-[(3-{[3-(DOTA-methyl-amino)-propyl]-methyl-amino}-propyl)-methyl-carbamoyl]-2-isopropyl-phenyl}-5-(2,6-dimethoxy-phenyl)-1H-pyrazole-3-carbonyl]-amino}-adamantane-2-carboxylic acid], which fraction unbound at 4 h [1] is on record?
Answer: Its fraction unbound at 4 h is 0.01.

Question: What about the “% Inhibition of Control Specific Binding” value (A2A (h)) of the same molecule?
Answer: Its value is 5%.

Question: And the “% of Control Specific Binding 1st” value (A2A (h))?
Answer: Its value is 104.2%.

Question: What about the “% of Control Specific Binding 2nd” value (A2A (h)) of the same molecule?
Answer: Its value is 85.6%.

Question: What about the “% of Control Specific Binding Mean” value (A2A (h)) of the same molecule?
Answer: The value was 94.9%.

Question: What about the “% Inhibition of Control Specific Binding” value (alpha 1 (non-selective)) of the same molecule?
Answer: The value was −9%.

Question: What about the “% of Control Specific Binding 1st” value (alpha 1 (non-selective)) of the same molecule?
Answer: The value was 106.2%.

Question: What about the “% of Control Specific Binding 2nd” value (alpha 1 (non-selective)) of the same molecule?
Answer: Its value is 111.1%.

Question: What about the “% of Control Specific Binding Mean” value (alpha 1 (non-selective)) of the same molecule?
Answer: The value was 108.7%.

Question: What about the inhibition at 10 µM (D1 (h); [2]) of the same molecule?
Answer: Its inhibition at 10 µM is -5%.

Question: What about the remaining activity at 10 µM (D1 (h); [3]) of the same molecule?
Answer: The remaining activity at 10 µM was 114%.

Question: What about the remaining activity at 10 µM (D1 (h); [4]) of the same molecule?
Answer: Its remaining activity at 10 µM is 96.3%.

Question: And the remaining activity at 10 µM (D1 (h); [5])?
Answer: Its remaining activity at 10 µM is 105%.

Question: What about the inhibition at 10 µM (H2 (h); [2]) of the same molecule?
Answer: Its inhibition at 10 µM is -4%.

Question: And the remaining activity at 10 µM (H2 (h); [3])?
Answer: Its remaining activity at 10 µM is 106%.

Question: And the remaining activity at 10 µM (H2 (h); [4])?
Answer: Its remaining activity at 10 µM is 102%.

Question: What about the remaining activity at 10 µM (H2 (h); [5]) of the same molecule?
Answer: Its remaining activity at 10 µM is 104%.

Question: What about the inhibition at 10 µM (MC4 (h); [2]) of the same molecule?
Answer: Its inhibition at 10 µM is -8%.

Question: And the remaining activity at 10 µM (MC4 (h); [3])?
Answer: Its remaining activity at 10 µM is 113%.

Question: And the remaining activity at 10 µM (MC4 (h); [4])?
Answer: The remaining activity at 10 µM was 104%.

Question: And the remaining activity at 10 µM (MC4 (h); [5])?
Answer: Its remaining activity at 10 µM is 108%.

Question: What about the inhibition at 10 µM (kappa (KOP); [2]) of the same molecule?
Answer: Its inhibition at 10 µM is -2%.

Question: And the remaining activity at 10 µM (kappa (KOP); [3])?
Answer: The remaining activity at 10 µM was 111%.

Question: And the remaining activity at 10 µM (kappa (KOP); [4])?
Answer: Its remaining activity at 10 µM is 92.3%.

Question: And the remaining activity at 10 µM (kappa (KOP); [5])?
Answer: The remaining activity at 10 µM was 102%.

Question: What about the “% Inhibition of Control Specific Binding” value (Cl-channel (GABA-gated)) of the same molecule?
Answer: The value was 2%.

Question: And the “% of Control Specific Binding 1st” value (Cl-channel (GABA-gated))?
Answer: Its value is 106.5%.

Question: And the “% of Control Specific Binding 2nd” value (Cl-channel (GABA-gated))?
Answer: The value was 89.1%.

Question: And the “% of Control Specific Binding Mean” value (Cl-channel (GABA-gated))?
Answer: The value was 97.8%.
